From patent US20090221648A1, “COMPOSITIONS FOR TREATMENT OF COGNITIVE DISORDERS” (priority 2007, published 2009)
Entries after “also recorded” stand apart in the source; their conditions may differ. Like-named read-outs stand apart in the source and are kept apart here.

Legend:
[1] = test system: Spontaneously Hypertensive rat (SHR) pups; conditions: from literature (Fox et al. 2002, 2005; Decker et al. 2008), cited from earlier work
[2] = test system: Spontaneously Hypertensive rat (SHR) pups; assay: 5-trial inhibitory avoidance in SHR rat pups; type: in vivo; conditions: for Level of Efficacy in SHR 5-trial Inhibitory Avoidance Model: applicant's Examples 1 and 2
Description: Methods: In this behavioral paradigm, hypothesized to test aspects of both attention and impulsivity, vehicle-treated Spontaneously Hypertensive rat (SHR) pups show an impaired ability to withhold a natural response to transfer from the light into a preferred dark chamber that is paired with a mild footshock. In this study, SHR pups at postnatal day 22-23 were dosed with either vehicle or atomoxetine (0.001, 0.01, 0.1, 1.0 and 6.0 mg/kg, s.c.) 30 min prior to being tested. They were then placed into the brightly illuminated compartment of a two compartment chamber (Hamilton Kinder, San Diego, Calif.) with a retractable door between the light and dark compartments opened. After animals transferred through the open door to the dark compartment, the door closed automatically and a 0.1 mA scrambled current was applied to a 31 bar stainless steel grid floor for one second. At this point, the pup was removed and returned to its home cage and littermates for a one minute inter trial interval, and the transfer latency was noted. The same pup was returned to the bright compartment, and the process repeated for five trials. Latency to enter the dark compartment was used to evaluate learning.
Methods: In this behavioral paradigm, hypothesized to test aspects of both attention and impulsivity, vehicle-treated SHR rat pups show an impaired ability to withhold a natural response to transfer from the light into a preferred dark chamber that is paired with a mild footshock. In this study, SHR pups at postnatal day 21-25 were dosed with either vehicle or the alpha7 agonist, compound 1,2-methyl-5-[6-phenylpyridazin-3-yl]octahydropyrrolo[3,4-c]pyrrole, (0.01, 0.1, and 1.0 umol/kg, s.c.) 30 min prior to being tested. They were then placed into the brightly illuminated compartment of a two compartment chamber (Hamilton Kinder, San Diego, Calif.) with a retractable door between the light and dark compartments opened. After animals transferred through the open door to the dark compartment, the door closed automatically and a 0.1 mA scrambled current was applied to a 31 bar stainless steel grid floor for one second. At this point, the pup was removed and returned to its home cage and littermates for a one minute inter trial interval, and the transfer latency was noted. The same pup was returned to the bright compartment, and the process repeated for five trials. Latency to enter the dark compartment was used to evaluate learning. Methods for evaluating 2-methyl-5-[6-phenylpyridazin-3-yl]octahydropyrrolo[3,4-c]pyrrole also are described in Tietje, Karin R., et al., Preclinical Characterization of A-582941: A Novel α7 Neuronal Nicotinic Receptor Agonist with Broad Spectrum Cognition-Enhancing Properties, CNS Neuroscience & Therapeutics 14 (2008) 65-82 (2008).
The 5-trial inhibitory avoidance assay in spontaneously hypertensive (SHR) rat pups has been proposed as a model with predictive validity for compounds showing efficacy in attention disorders such as ADHD.

rats = rats performing an operant visual signal detection task; Rezvani et al. 2008; cited from earlier work

C[C@@H]1CCCN1CCc1cc2cc(-c3ccc(C#N)cc3)ccc2o1 [ABT-239]
Level of Efficacy in SHR 5-trial Inhibitory Avoidance Model [1]: full efficacy and Full

COC(=O)C(c1ccccc1)C1CCCCN1 (stereo not drawn) [Methylphenidate, methylphenidate]
Level of Efficacy in SHR 5-trial Inhibitory Avoidance Model [1]: Full
Level of Efficacy in SHR 5-trial Inhibitory Avoidance Model ([1]; listed as methylphenidate): fully efficacious

Cc1cc([C@@H]2CCCN2C)on1 [ABT-418]
Level of Efficacy in SHR 5-trial Inhibitory Avoidance Model [1]: full efficacy and Full

CNCC[C@@H](Oc1ccccc1C)c1ccccc1 [Atomoxetine, atomoxetine]
transfer latency compared to vehicle treated animals ([2]; SHR pups postnatal day 22-23, 0.001, 0.01, 0.1, 1.0 and 6.0 mg/kg s.c., 30 min prior to testing, FIG. 1): did not alter transfer latency
Level of Efficacy in SHR 5-trial Inhibitory Avoidance Model [2]: None
Level of Efficacy in SHR 5-trial Inhibitory Avoidance Model ([2]; listed as atomoxetine): did not show efficacy; also recorded: not efficacious

Cl.O=C(N[C@@H]1CN2CCC1CC2)c1n[nH]c2ccccc12 [R3487/MEM3454]
visual sustained attention (rats): improve visual sustained attention

CN1CC2CN(c3ccc(-c4ccccc4)nn3)CC2C1 (stereo not drawn) [Compound 1, 2-methyl-5-[6-phenylpyridazin-3-yl]octahydropyrrolo[3,4-c]pyrrole]
effect on transfer latency ([2]; SHR pups postnatal day 21-25, 0.01, 0.1 and 1.0 umol/kg s.c., 30 min prior to testing, Mann Whitney p<0.05, FIG. 2): significant, dose dependent effect
transfer latency ([2]; SHR pups postnatal day 21-25, dose of 1 μmol/kg s.c., FIG. 2): significantly increasing transfer latency
Level of Efficacy in SHR 5-trial Inhibitory Avoidance Model [2]: full efficacy and Full

Cc1ncccc1OC[C@@H]1CCCN1 [ABT-089]
Level of Efficacy in SHR 5-trial Inhibitory Avoidance Model [1]: full efficacy and Full
